# Source: US8415364B2, “Method of preventing or treating glaucoma” (Duke University, priority 2003, dated 2013)
# Columns and labels:
# [1] = tested on: Porcine primary trabecular meshwork (PTM) cells; assay: Actin stress fibers (phalloidin) and focal adhesion (vinculin) immunofluorescence staining in PTM cells; format: cell-based
# Method: (§1) Porcine primary trabecular meshwork (PTM) and ciliary muscle cells (PCM) were cultured and treated with lovastatin or compactin at concentrations of 25 μM and 50 μM. Effects on actin stress fibers (phalloidin staining) and focal adhesion formation (vinculin) were evaluated by immunofluorescence staining. Urea/glycerol polyacrylamide gel electrophoresis and Western blot analysis were utilized to investigate the effects of statins on myosin light chain (MLC) phosphorylation. Changes in cell shape were recorded using the phase contrast microscope. A constant flow organ culture perfusion system was used to measure outflow facility in perfused porcine eye anterior segments.
# [2] = tested on: Porcine primary trabecular meshwork (PTM) cells; assay: Cell shape by phase contrast microscopy in PTM cells; format: cell-based
# Method: as §1
# [3] = tested on: myosin light chain (MLC) phosphorylation; assay: MLC phosphorylation by urea/glycerol PAGE and Western blot in PTM cells; format: cell-based, porcine
# Method: as §1
# [4] = tested on: perfused porcine eye anterior segments; assay: Constant flow organ culture perfusion of porcine eye anterior segments
# Method: as §1
# [5] = PTM cells, within 24 hours of drug administration
SMILES,effect on lovastatin-induced changes in cell shape and cytoskeletal organization ([1]; supplementation of cell culture media containing lovastatin),changes in cell shape ([2]; 25 μM and 50 μM),reversibility of morphological changes ([2]; upon drug withdrawal),"effect on actin stress fibers [1, 5]","effect on focal adhesions [1, 5]",MLC phosphorylation [3],"drop in intraocular pressure ([4]; 100 μM, at 72 hours, control eyes 22% reduction, ongoing study)",ability to decrease IOP ([4]; organ culture perfusion model)
CC(C)=CCC/C(C)=C/CC/C(C)=C/CC/C(C)=C/COP(=O)(O)OP(=O)(O)O [geranylgeranyl pyrophosphate],completely reversed,–,–,–,–,–,–,–
CC[C@H](C)C(=O)O[C@H]1C[C@@H](C)C=C2C=C[C@H](C)[C@H](CC[C@@H]3C[C@@H](O)CC(=O)O3)[C@H]21 [lovastatin],–,dramatic changes in cell shape,reversible upon drug withdrawal,actin depolymerization,loss of focal adhesions,marked reduction,48%,ability to decrease IOP
